From paper PMC9406419, “OATD-02 Validates the Benefits of Pharmacological Inhibition of Arginase 1 and 2 in Cancer” (Cancers, 2022)

Columns and labels:
recombinant human ARG2 = target: T1, recombinant human ARG2 (Homo sapiens, UniProt P78540); experiment: Recombinant arginase inhibition assay (colorimetric urea detection), ARG2; assay type: biochemical; settings: recombinant human ARG2, 20 mM L-arginine, 37 °C, 1 h, pH 7.4
T1 construct: made in house; host or cells: E. coli
T1 sequence (P78540 23-354): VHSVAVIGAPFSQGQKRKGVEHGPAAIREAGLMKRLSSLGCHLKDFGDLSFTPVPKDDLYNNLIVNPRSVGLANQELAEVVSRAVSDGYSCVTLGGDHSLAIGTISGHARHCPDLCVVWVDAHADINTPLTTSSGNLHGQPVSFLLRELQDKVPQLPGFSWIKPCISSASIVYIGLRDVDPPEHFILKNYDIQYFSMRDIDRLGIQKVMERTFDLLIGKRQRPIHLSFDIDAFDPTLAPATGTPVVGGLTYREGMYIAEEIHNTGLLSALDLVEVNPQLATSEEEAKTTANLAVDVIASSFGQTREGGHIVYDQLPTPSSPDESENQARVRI
Method: Recombinant enzymes (ARG1 or ARG2) were produced at Molecure SA—biosynthesized in E. coli expression system, purified by fast protein liquid chromatography, and stored at −80 °C in the storage buffer (20 mM Tris pH 8.0, 100 mM NaCl, 10 mM DDT, 10% glycerol). The enzymatic reaction was carried out at 37 °C for 1 h in the assay buffer (100 mM sodium phosphate buffer, 130 mM NaCl, pH 7.4) with the addition of 1 mg/mL BSA in the presence of 200 µM MnCl2 (enzyme cofactor), 10 mM (for ARG1) or 20 mM (for ARG2) of L-arginine hydrochloride (enzyme substrate), and serial dilutions of the test compounds. The inhibition of the arginase activity was determined by colorimetric detection of produced urea, as previously described with minor changes. Briefly, 150 µL of freshly prepared developing reagent (2 mM o-phthaldialdehyde (OPA), 2 mM N-(1-naphthyl)ethylenediamine dihydrochloride (NED), 50 mM boric acid, 1 M sulfuric acid, 0.03% Brij-35) was added to each well, incubated for 20 min at RT, then the absorbance at 515 nm was measured. Normalized values were fitted to a four-parameter equation using GraphPad Prism and IC50 values were determined. […]

CT26 tumours = experiment: Syngeneic CT26 colorectal carcinoma model, monotherapy, with plasma/tumour bioanalytics; assay type: in vivo, mouse; settings: for final TGI (tumour growth inhibition): CT26 in BALB/c mice, 100 mg/kg, PO, BID from day 1 post-inoculation
Method: CT26 and K562 in vivo experiments were conducted at Molecure SA. All experimental procedures were approved by the 1st Local Ethics Committee in Warsaw (Poland). For the syngeneic CT26 model, 7–8-week old BALB/c females (n = 9–18 per group, BALB/cAnNCrl, Charles River Laboratories) were injected subcutaneously in the right flank with 5 × 10^5 CT26 cells. […] Anti-PD-L1 antibody (InVivoPlus anti-mouse PD-L1, clone 10F.9G2, BioXCell, lot 615416D1) was injected intraperitoneally at 2.5 mg/kg on days: 8, 10, 12, 14 and 16 post tumour cells inoculation. Control groups received vehicle (saline) or isotype antibody (InVivoPlus rat IgG2b, anti-KLH, BioXCell, lot 629816D1). For the xenograft K562 model, 7–8 week-old athymic nude mice (n = 8–11 per group, Crl:NU(NCr)-Foxn1^nu, Charles River Laboratories) or NK cell-deficient Fox Chase SCID Beige mice (n = 10–12 per group, CB17.Cg-Prkdc^scidLyst^bg-J/Crl, Charles River Laboratories) were injected subcutaneously in the right flank with 1 × 10^7 K562 cells. […] Tumour volume measured by a digital calliper (width × length × depth × π/6) was recorded three times per week. Animals were euthanized when tumours were necrotized or volume exceeded 2000 mm^3. Renca in vivo efficacy study was performed at Crown Biosciences Inc. (Taicang, China). All experimental procedures on animals were approved by the Institutional Animal Care and Use Committee (IACUC) and conducted in accordance with the regulations of the Association for Assessment and Accreditation of Laboratory Animal Care (AAALAC). For the syngeneic Renca model, 6–7 week-old BALB/c females (n = 12 per group, Shanghai Lingchang Biotechnology, Shanghai, China) were injected subcutaneously in the right flank with 1 × 10^6 Renca cells. Tumour volumes (length × width^2 × 0.5) were measured twice per week. OATD-02 was dosed twice per day at 75 mg/kg by oral gavage. A dosing holiday was given to individuals with bodyweight loss exceeding 15% of the initial body weight and the treatment was resumed when the bodyweight loss recovered to less than 10%. Due to the cachexic nature of the Renca model, all animals were supplemented with DietGel to help maintain their body weight.
The concentrations of OATD-02, the reference ARGi or L-arginine were determined in plasma samples or tumour homogenates using liquid chromatography coupled with tandem mass spectrometry (LC-MS/MS). Sample preparation was based on protein precipitation using acetonitrile. The resulting supernatants were analysed using hydrophilic interaction liquid chromatography (HILIC) with subsequent MS detection based on optimised MRM transitions. Matrix-matched calibration and quality control samples were prepared for quantification of OATD-02 and the reference ARGi. Due to the endogenous character of L-arginine, a surrogate matrix was used for its detection.
All statistical analyses were performed using GraphPad Prism (ver. 9, GraphPad Software, Inc., San Diego, CA, USA). Data sets with normal distribution were described as means with SEM (standard error of the mean). Otherwise, the median value was shown and the U Mann–Whitney or the Kruskal–Wallis tests were applied for intergroup comparisons. Differences at p-value less than 0.05 were considered statistically significant. TGI (tumour growth inhibition) index was calculated by the formula: (1 − A/B) × 100%, where A is the tumour volume in the treated group and B is the volume in the control group. […]

[1] = target: intracellular arginase in human primary hepatocytes; experiment: Liver arginase inhibition assay in human primary hepatocytes (urea in supernatant); assay type: cell-based; settings: 24 h incubation, 5 mM L-arginine

oral bioavailability (plasma concentrations, compared between the two inhibitors) (CT26 tumours; CT26-bearing mice, 100 mg/kg PO BID, Figure 2B) | Compound | IC50 (recombinant human ARG2) [µM] | fold change of endogenous plasma L-arginine (CT26 tumours; CT26-bearing mice, 100 mg/kg PO BID, 6 h after the last dosing) | final TGI (tumour growth inhibition) (CT26 tumours) [%] | fold change of L-arginine in tumour homogenates (CT26 tumours; CT26 tumours, 100 mg/kg PO BID, within the first 6 h post-dosing) | IC50 [1] [µM] | IC50 ([1]; Hepatocyte) [µM]
– | CN(C)C[C@@H]1CC[C@@H](CCB(O)O)C[C@]1(N)C(=O)O [OATD-02] | 0.034 | up to 6.7 fold | 48 | up to 6.9 fold | 14.2 | –
higher oral bioavailability | C[C@H](N)C(=O)N1C[C@H](CCCB(O)O)[C@](N)(C(=O)O)C1 [ref. ARGi, numidargistat, reference compound] | 0.335 | – | 28 | – | – | 50.1
